# Assay results published in ChEMBL document CHEMBL3045512, “Synthesis of some novel triazoloquinazolines and triazinoquinazolines and their evaluation for anti-inflammatory activity” (Med Chem Res, 2012).
# Columns and labels:
# Mus musculus [1] = assay: Toxicity in Mus musculus albino (mouse) assessed as serum gamma-glutamyl transferase level at 600 mg/kg, po for 10 days (reference value: 4.43 +/- 0.31 U/l); type: organism-based; parameters: dose 600 mg/kg, route oral; conditions: in vivo, 240 h
# Mus musculus [2] = assay: Toxicity in Mus musculus albino (mouse) assessed as serum ALP level at 600 mg/kg, po for 10 days (reference value: 31.63 +/- 3.73 U/l); type: organism-based; parameters: dose 600 mg/kg, route oral; conditions: in vivo, 240 h
# Mus musculus [3] = assay: Toxicity in Mus musculus albino (mouse) assessed as serum SGPT level at 600 mg/kg, po for 10 days (reference value: 35.82 +/- 5.26 U/l); type: organism-based; parameters: dose 600 mg/kg, route oral; conditions: in vivo, 240 h
# Mus musculus [4] = assay: Toxicity in Mus musculus albino (mouse) assessed as serum SGOT level at 600 mg/kg, po for 10 days (reference value: 9.74 +/- 1.73 U/l); type: organism-based; parameters: dose 600 mg/kg, route oral; conditions: in vivo, 240 h
# Mus musculus [5] = assay: Anti-inflammatory activity in Mus musculus albino (mouse) assessed as inhibition of formalin-induced paw swelling at 60 mg/kg, po administered 30 min prior formalin challenge measured after 120 min post challenge (reference value: 9.83 +/- 0.071 mm/min); type: functional
# Mus musculus [6] = assay: Anti-inflammatory activity in Mus musculus albino (mouse) assessed as inhibition of formalin-induced paw swelling at 60 mg/kg, po administered 30 min prior formalin challenge measured after 90 min post challenge (reference value: 9.5 +/- 0.04 mm/min); type: functional
# Mus musculus [7] = assay: Anti-inflammatory activity in Mus musculus albino (mouse) assessed as inhibition of formalin-induced paw swelling at 60 mg/kg, po administered 30 min prior formalin challenge measured after 60 min post challenge (reference value: 9.73 +/- 0.06 mm/min); type: functional
# Mus musculus [8] = assay: Anti-inflammatory activity in Mus musculus albino (mouse) assessed as inhibition of formalin-induced paw swelling at 60 mg/kg, po administered 30 min prior formalin challenge measured after 30 min post challenge (reference value: 9.46 +/- 0.035 mm/min); type: functional
# Mus musculus [9] = assay: Toxicity in Mus musculus albino (mouse) assessed as GPx activity per gram of Hb at 600 mg/kg, po for 10 days (Rvb =179.16 +/- 10.45 U/g Hb); type: organism-based; parameters: dose 600 mg/kg, route oral; conditions: in vivo, 240 h
# Mus musculus [10] = assay: Toxicity in Mus musculus albino (mouse) assessed as SOD activity per gram of Hb at 600 mg/kg, po for 10 days (reference value: 12.7 +/- 2.08 U/g Hb); type: organism-based; parameters: dose 600 mg/kg, route oral; conditions: in vivo, 240 h
# Mus musculus [11] = assay: Toxicity in Mus musculus albino (mouse) assessed as GSH activity at 600 mg/kg, po for 10 days (reference value: 59.57 +/- 5.10 %); type: organism-based; parameters: dose 600 mg/kg, route oral; conditions: in vivo, 240 h
# Mus musculus [12] = assay: Toxicity in Mus musculus albino (mouse) assessed as serum TBARS level at 600 mg/kg, po for 10 days (reference value: 4.35 +/- 0.86 U/l); type: organism-based; parameters: dose 600 mg/kg, route oral; conditions: in vivo, 240 h
# Mus musculus [13] = assay: Toxicity in Mus musculus albino (mouse) assessed as serum LDH level at 600 mg/kg, po for 10 days (reference value: 217.84 +/- 13.36 U/l); type: organism-based; parameters: dose 600 mg/kg, route oral; conditions: in vivo, 240 h
# Mus musculus [14] = assay: Toxicity in Mus musculus albino (mouse) assessed as GPx activity per gram of Hb at 300 mg/kg, po for 10 days (Rvb =179.16 +/- 10.45 U/g Hb); type: organism-based; parameters: dose 300 mg/kg, route oral; conditions: in vivo, 240 h
# Mus musculus [15] = assay: Toxicity in Mus musculus albino (mouse) assessed as SOD activity per gram of Hb at 300 mg/kg, po for 10 days (reference value: 12.7+/- 2.08 U/g Hb); type: organism-based; parameters: dose 300 mg/kg, route oral; conditions: in vivo, 240 h
# Mus musculus [16] = assay: Toxicity in Mus musculus albino (mouse) assessed as GSH activity at 300 mg/kg, po for 10 days (reference value: 59.57 +/- 5.10 %); type: organism-based; parameters: dose 300 mg/kg, route oral; conditions: in vivo, 240 h
# Mus musculus [17] = assay: Toxicity in Mus musculus albino (mouse) assessed as serum TBARS level at 300 mg/kg, po for 10 days (reference value: 4.35 +/- 0.86 U/l); type: organism-based; parameters: dose 300 mg/kg, route oral; conditions: in vivo, 240 h
# Mus musculus [18] = assay: Toxicity in Mus musculus albino (mouse) assessed as serum LDH level at 300 mg/kg, po for 10 days (reference value: 217.84 +/- 13.36 U/l); type: organism-based; parameters: dose 300 mg/kg, route oral; conditions: in vivo, 240 h
# Mus musculus [19] = assay: Toxicity in Mus musculus albino (mouse) assessed as serum gamma-glutamyl transferase level at 300 mg/kg, po for 10 days (reference value: 4.43 +/- 0.31 U/l); type: organism-based; parameters: dose 300 mg/kg, route oral; conditions: in vivo, 240 h
# Mus musculus [20] = assay: Toxicity in Mus musculus albino (mouse) assessed as serum ALP level at 300 mg/kg, po for 10 days (reference value: 31.63 +/- 3.73 U/l); type: organism-based; parameters: dose 300 mg/kg, route oral; conditions: in vivo, 240 h
# Mus musculus [21] = assay: Toxicity in Mus musculus albino (mouse) assessed as serum SGPT level at 300 mg/kg, po for 10 days (reference value: 35.82 +/- 5.26 U/l); type: organism-based; parameters: dose 300 mg/kg, route oral; conditions: in vivo, 240 h
# Mus musculus [22] = assay: Toxicity in Mus musculus albino (mouse) assessed as serum SGOT level at 300 mg/kg, po for 10 days (reference value: 9.74 +/- 1.73 U/l); type: organism-based; parameters: dose 300 mg/kg, route oral; conditions: in vivo, 240 h
# Mus musculus [23] = assay: Toxicity in Mus musculus albino (mouse) assessed as bluish toe at 80 to 375 mg/kg, ip; type: organism-based; parameters: dose 80-375 mg/kg, route intraperitoneal; conditions: in vivo
# Mus musculus [24] = assay: Toxicity in Mus musculus albino (mouse) assessed as bluish skin at 80 to 375 mg/kg, ip; type: organism-based; parameters: dose 80-375 mg/kg, route intraperitoneal; conditions: in vivo
# Mus musculus [25] = assay: Toxicity in Mus musculus albino (mouse) assessed as brownish eye mucus at 80 to 375 mg/kg, ip; type: organism-based; parameters: dose 80-375 mg/kg, route intraperitoneal; conditions: in vivo
# Mus musculus [26] = assay: Toxicity in Mus musculus albino (mouse) assessed as tremor inhind limbs at 80 to 375 mg/kg, ip; type: organism-based, Limb; parameters: dose 80-375 mg/kg, route intraperitoneal; conditions: in vivo
# Mus musculus [27] = assay: Toxicity in Mus musculus albino (mouse) assessed as general depression at 80 to 375 mg/kg, ip; type: organism-based; parameters: dose 80-375 mg/kg, route intraperitoneal; conditions: in vivo
# Mus musculus [28] = assay: Toxicity in Mus musculus albino (mouse) assessed as rapid respiration at 80 to 375 mg/kg, ip; type: organism-based; parameters: dose 80-375 mg/kg, route intraperitoneal; conditions: in vivo
# Mus musculus [29] = assay: Toxicity in Mus musculus albino (mouse) assessed as increase in heart rate at 80 to 375 mg/kg, ip; type: organism-based; parameters: dose 80-375 mg/kg, route intraperitoneal; conditions: in vivo
# Mus musculus [30] = assay: Toxicity in ip dosed Mus musculus albino (mouse) assessed as mortality measured per gram body weight; type: organism-based; conditions: in vivo
# Mus musculus [31] = assay: Anti-inflammatory activity in Mus musculus albino (mouse) assessed as inhibition of formalin-induced paw swelling at 30 mg/kg, po administered 30 min prior formalin challenge measured after 120 min post challenge (reference value: 9.83 +/- 0.071 mm/min); type: functional
# Mus musculus [32] = assay: Anti-inflammatory activity in Mus musculus albino (mouse) assessed as inhibition of formalin-induced paw swelling at 30 mg/kg, po administered 30 min prior formalin challenge measured after 90 min post challenge (reference value: 9.5 +/- 0.04 mm/min); type: functional
# Mus musculus [33] = assay: Anti-inflammatory activity in Mus musculus albino (mouse) assessed as inhibition of formalin-induced paw swelling at 30 mg/kg, po administered 30 min prior formalin challenge measured after 60 min post challenge (reference value: 9.73 +/- 0.06 mm/min); type: functional
# Mus musculus [34] = assay: Anti-inflammatory activity in Mus musculus albino (mouse) assessed as inhibition of formalin-induced paw swelling at 30 mg/kg, po administered 30 min prior formalin challenge measured after 30 min post challenge (reference value: 9.46 +/- 0.035 mm/min); type: functional
smiles,measurement,setting,value
COc1ccc2c(c1)c(CC(=O)O)c(C)n2C(=O)c1ccc(Cl)cc1 [INDOMETHACIN],Activity,Mus musculus [1],9.45 U/L
same,Activity,Mus musculus [2],76.41 U/L
same,Activity,Mus musculus [3],65.37 U/L
same,Activity,Mus musculus [4],24.51 U/L
same,Activity,Mus musculus [5],6.98 millimeter/min
same,Activity,Mus musculus [6],7.2 millimeter/min
same,Activity,Mus musculus [7],7.19 millimeter/min
same,Activity,Mus musculus [8],6.5 millimeter/min
same,Activity,Mus musculus [9],134 U/g Hb
same,Activity,Mus musculus [10],7.45 U/g Hb
same,Activity,Mus musculus [11],45.32%
same,Activity,Mus musculus [12],7.45 nmol/mL
same,Activity,Mus musculus [13],326.8 U/L
COc1ccccc1/C=N/n1c(Nc2ccc(S(N)(=O)=O)cc2)nc2ccccc2c1=O,Activity,Mus musculus [14],183 U/g Hb
same,Activity,Mus musculus [15],13.1 U/g Hb
same,Activity,Mus musculus [16],61.45%
same,Activity,Mus musculus [17],3.97 nmol/mL
same,Activity,Mus musculus [18],205.65 U/L
same,Activity,Mus musculus [19],4.12 U/L
same,Activity,Mus musculus [20],30.01 U/L
same,Activity,Mus musculus [21],33.65 U/L
same,Activity,Mus musculus [22],10.7 U/L
same,Activity,Mus musculus [23],Toxic
same,Activity,Mus musculus [24],Toxic
same,Activity,Mus musculus [25],Toxic
same,Activity,Mus musculus [26],Toxic
same,Activity,Mus musculus [27],Toxic
same,Activity,Mus musculus [28],Toxic
same,Activity,Mus musculus [29],Toxic
same,Activity,Mus musculus [30],222.25 millimeter/min
same,Activity,Mus musculus [31],6.5 millimeter/min
same,Activity,Mus musculus [32],7.19 millimeter/min
same,Activity,Mus musculus [33],7.78 millimeter/min
same,Activity,Mus musculus [34],7.76 millimeter/min
